According to PMC6934184, “Selective DNA-PKcs inhibition extends the therapeutic index of localized radiotherapy and chemotherapy” (The Journal of Clinical Investigation, 2019):

Target: T1, KIT A829P (Homo sapiens, UniProt P10721, A829P)
T1 construct: purchased Thermo Fisher Scientific (Life Technologies) SelectScreen
Assay: SelectScreen LanthaScreen
Assay type: binding
Settings: read-out: % displacement
Procedure, shortened: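 NU5455 was profiled across the SelectScreen Broad panel of kinase activity and binding assays. Z'LYTE reactions such as CSF1R ran at apparent Km ATP, while the Adapta CAMK1 assay used ATP listed as 10. Values are given as percent.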

T1 sequence (P10721 26-976 A829P): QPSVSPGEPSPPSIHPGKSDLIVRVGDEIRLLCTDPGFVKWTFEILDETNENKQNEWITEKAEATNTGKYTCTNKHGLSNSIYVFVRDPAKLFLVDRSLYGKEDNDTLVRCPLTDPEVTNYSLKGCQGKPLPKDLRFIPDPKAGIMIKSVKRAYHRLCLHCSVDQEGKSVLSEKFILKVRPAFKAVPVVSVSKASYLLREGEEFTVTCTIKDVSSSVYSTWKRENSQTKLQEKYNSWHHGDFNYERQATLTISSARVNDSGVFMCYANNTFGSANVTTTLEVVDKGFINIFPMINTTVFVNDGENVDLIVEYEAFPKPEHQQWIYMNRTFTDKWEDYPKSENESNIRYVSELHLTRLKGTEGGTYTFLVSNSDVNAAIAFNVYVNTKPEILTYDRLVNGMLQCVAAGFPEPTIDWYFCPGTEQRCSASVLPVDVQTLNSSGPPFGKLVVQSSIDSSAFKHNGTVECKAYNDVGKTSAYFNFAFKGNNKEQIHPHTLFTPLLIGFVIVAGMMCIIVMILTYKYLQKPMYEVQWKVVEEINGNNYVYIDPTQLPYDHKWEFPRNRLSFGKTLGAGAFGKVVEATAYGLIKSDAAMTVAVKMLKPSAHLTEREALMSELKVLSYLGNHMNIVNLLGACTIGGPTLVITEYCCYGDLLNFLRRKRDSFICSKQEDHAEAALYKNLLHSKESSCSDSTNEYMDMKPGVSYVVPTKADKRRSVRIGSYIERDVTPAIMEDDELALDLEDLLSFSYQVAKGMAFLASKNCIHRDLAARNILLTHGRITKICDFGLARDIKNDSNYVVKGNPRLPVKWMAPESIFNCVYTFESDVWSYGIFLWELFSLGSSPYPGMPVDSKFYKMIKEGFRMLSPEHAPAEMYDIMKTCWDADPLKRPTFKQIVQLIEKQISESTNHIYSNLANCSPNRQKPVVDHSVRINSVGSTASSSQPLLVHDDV

CN(C(=O)CN1CCOCC1)c1ccc2sc3c(-c4cccc5c(=O)cc(N6CC7CCC(C6)O7)oc45)cccc3c2c1 [NU5455]
inhibition at 1 µM: 0.7%
